Measurements taken from patent US20260234268A1, “ANTI-ASGR1 MONOCLONAL ANTIBODY AND USE THEREOF” (CHOLESGEN (SHANGHAI) CO., LTD., priority 2022, published 2026).

What was measured:
[1] = Ezetimibe used alone, clinical; cited from earlier work
[2] = tested on: mice fed a high-fat, high-cholesterol, and cholate (HF/HC/BS) diet; experiment: 4B9 and Ezetimibe, alone or combined, in mice fed HF/HC/BS diet (Example 3, FIG. 4); format: in vivo, mouse; details: sacrificed on day 7, 4B9 10 mg/kg i.p. every other day
Protocol: All data are presented as mean±SEM.
We then devised an experiment as in FIG. 4 to verify the hypothesis. Mice were randomly divided into 8 groups according to the genotype (n=6) and fed an HF/HC/BS diet. They were intragastrically administered with EZ at 10 mg/kg per day and were intraperitoneally injected with 4B9 at 10 mg/kg every other day. The mice were sacrificed on day 7 to collect their tissues.

[3] = tested on: mice fed a high-fat, high-cholesterol, and cholate (HF/HC/BS) diet; experiment: 4B9 and atorvastatin, alone or combined, in mice fed HF/HC/BS diet, 14 days (Example 2, FIG. 3); details: 4B9 10 mg/kg/day i.p. every other day
Protocol: 8-week-old Asgr1 knockout mice and wild-type littermates are randomly divided into 8 groups as shown in the figure according to the genotype, with 6 mice per group. The mice are given free access to water and fed a high-fat, high-cholesterol, and cholate (HF/HC/BS) diet (60% fat, 1.25% cholesterol, and 0.5% cholate). […] After 14 days, the mice are fasted for 4 hours before being sacrificed. All data are presented as mean±SEM. Statistical significance is calculated using an unpaired two-tailed Student's t-test. *p<0.05, **p<0.01, ***p<0.001. (a) Western blotting analysis of liver samples; (b) total cholesterol in serum; (c) triglyceride in serum; (d) total cholesterol in liver; (e) triglyceride in liver; (f) concentration of cholesterol in bile; (g) total cholesterol in bile; (h) concentration of bile acid in bile; (i) total bile acid in bile; (j) total cholesterol in feces; (k) body weight; (l) daily food intake; (m) ratio of liver weight to body weight; (n) blood glucose; (o) alanine transaminase in serum; (p) aspartate transaminase in serum; (q-r) real-time quantitative PCR analysis of genes related to cholesterol efflux, cholesterol synthesis and absorption, lipid synthesis, and bile acid synthesis in the liver of mice, and genes in other pathways, with cyclophilin as an internal reference; (s) hematoxylin-eosin staining of liver sections; (t) oil red O staining of liver sections.
In the experiment, wild-type littermates were used as a control. All mice were housed in an SPF (specific pathogen-free) facility and kept on a 12-hour light/12-hour dark cycle. 8-week-old male or female mice were fed a high-fat, high-cholesterol, and cholate diet (Research Diets, D12109C) as required by the experimental protocols. For treatments involving antibody neutralization or the combination of antibodies with statins or Ezetimibe, the mice were intraperitoneally injected with antibodies or intragastrically administered with drugs at specified doses. All animals were fasted for 4 hours before being sacrificed.
The collected cells or tissues were lysed in RIPA lysis buffer supplemented with protease and phosphatase inhibitors. The RIPA lysis buffer contained 50 mM Tris-HCl (pH=8.0), 150 mM NaCl, 2 mM MgCl2, 1.5% NP-40, 0.1% SDS, and 0.5% sodium deoxycholate. The protease inhibitor contained 10 μM MG-132, 10 μg/mL leupeptin, 1 mM PMSF, 5 μg/mL pepstatin, 25 μg/mL ALLN, and 1 mM DTT. The protein concentration of the lysate was determined using a BCA method (Thermo Fisher Scientific). The protein samples were incubated with membrane solubilization buffer (62.5 mM Tris-HCl (pH=6.8), 15% SDS, 8 M urea, 10% glycerol, and 100 mM DTT) and 4× loading buffer (150 mM Tris-HCl (pH=6.8), 12% SDS, 30% glycerol, 6% β-mercaptoethanol, and 0.02% bromophenol blue) at 37° C. for 30 minutes. The protein samples were separated by SDS-PAGE and transferred to a PVDF membrane, which was blocked in TBST, i.e., TBS containing 0.075% Tween 20 and 5% skim milk (3% BSA for phosphorylation experiments) for 1 hour. The membrane was incubated overnight at 4° C. with a specified primary antibody, and washed three times with TBST. Finally, Pierce ECL Plus Western blotting substrate (Thermo Fisher Scientific) was used for detection.
Blood was collected from the orbital sinus to obtain serum for the measurement of total cholesterol and triglyceride.

[4] = EZ 10 mg/kg per day intragastric (FIGS. 4a, 4p-q)

## O=C1[C@H](CC[C@H](O)c2ccc(F)cc2)[C@@H](c2ccc(O)cc2)N1c1ccc(F)cc1 [Ezetimibe, reference compound]
[1]
  reduction of the plasma concentration of LDL-c: about 20%
[2]; 8 groups of mice, EZ 10 mg/kg per day intragastric (FIG. 4j)
  body weight: No significant differences
[2]; 8 groups of mice, EZ 10 mg/kg per day intragastric (FIG. 4k)
  daily food intake: No significant differences
[2]; 8 groups of mice, EZ 10 mg/kg per day intragastric (FIG. 4l)
  ratio of liver weight to body weight: No significant differences
[2]; 8 groups of mice, EZ 10 mg/kg per day intragastric (FIG. 4m)
  blood glucose: No significant differences
[2]; 8 groups of mice, EZ 10 mg/kg per day intragastric (FIG. 4n)
  ALT: No significant differences
[2]; 8 groups of mice, EZ 10 mg/kg per day intragastric (FIG. 4o)
  AST: No significant differences
[2]; EZ 10 mg/kg per day intragastric (FIG. 4b)
  total cholesterol in serum: effectively reduce
[2]; EZ 10 mg/kg per day intragastric (FIG. 4c)
  triglyceride in serum: effectively reduce
[2]; EZ 10 mg/kg per day intragastric (FIG. 4e)
  triglyceride in liver: effectively reduce
[2]; EZ 10 mg/kg per day intragastric (FIG. 4g)
  total amount of total cholesterol in bile: significantly inhibited
[2]; EZ 10 mg/kg per day intragastric (FIG. 4i)
  total amount of total bile acid in bile: significantly inhibited
[2]; EZ 10 mg/kg per day intragastric (FIG. 4d)
  total cholesterol in liver: effectively reduce
[2]; [4]
  cholesterol efflux-related genes and their proteins (LXRs, ABCG8, ABCA1, CYP7A1) in liver: significant decrease
  lipid synthesis-related genes and their proteins (SREBP1, FASN) in liver: significant decrease

## CC(C)c1c(C(=O)Nc2ccccc2)c(-c2ccccc2)c(-c2ccc(F)cc2)n1CC[C@@H](O)C[C@@H](O)CC(=O)O [atorvastatin]
[3]; atorvastatin 30 mg/kg/day intragastric daily (FIG. 3b)
  total cholesterol in serum: effectively reduce
[3]; atorvastatin 30 mg/kg/day intragastric daily (FIG. 3c)
  triglyceride in serum: effectively reduce
[3]; atorvastatin 30 mg/kg/day intragastric daily (FIG. 3e)
  triglyceride in liver: effectively reduce
[3]; atorvastatin 30 mg/kg/day intragastric daily (FIG. 3g)
  total amount of total cholesterol in bile: almost no effect
[3]; atorvastatin 30 mg/kg/day intragastric daily (FIG. 3j)
  total cholesterol in feces: no effect
[3]; atorvastatin 30 mg/kg/day intragastric daily (FIG. 3d)
  total cholesterol in liver: effectively reduce
[3]; 8 groups of mice, atorvastatin 30 mg/kg/day intragastric daily (FIG. 3k)
  body weight: No significant differences
[3]; 8 groups of mice, atorvastatin 30 mg/kg/day intragastric daily (FIG. 3l)
  daily food intake: No significant differences
[3]; 8 groups of mice, atorvastatin 30 mg/kg/day intragastric daily (FIG. 3n)
  blood glucose: No significant differences
[3]; 8 groups of mice, atorvastatin 30 mg/kg/day intragastric daily (FIG. 3o)
  ALT: No significant differences
[3]; 8 groups of mice, atorvastatin 30 mg/kg/day intragastric daily (FIG. 3p)
  AST: No significant differences
